Assay results as given in US20260285850A1, “SUBSTITUTED OXAZOLIDINONES AND IMIDAZOLINONES AS HERBICIDES” (FMC CORPORATION, priority 2023, published 2026).

Key:
Format in all cases: in vivo
[1] = test system: barnyardgrass (Echinochloa crus-galli); test: Test A preemergence soil spray, visual injury rating 0-100; settings: 10 days, 0 = no effect, 100 = complete control
How it was run: (§1)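 Scale 0–100 (no effect to complete control), visual, versus untreated controls, read 10 days after application. Application: preemergence directed spray onto seeded loam–sand soil, or postemergence to young plants; formulation in non-phytotoxic solvent with surfactant.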

[2] = test system: green foxtail (Setaria viridis); test: as above; settings: 10 days, 0 = no effect, 100 = complete control
How it was run: as §1

[3] = test system: oat, wild (wild oat, Avena fatua); test: as above; settings: 10 days, 0 = no effect, 100 = complete control
How it was run: as §1

[4] = test system: palmer (palmer amaranth, palmer pigweed, Amaranthus palmeri); test: as above; settings: 10 days, 0 = no effect, 100 = complete control
How it was run: as §1

kochia (Bassia scoparia) [5] = test: as above; settings: 10 days, 0 = no effect, 100 = complete control
How it was run: as §1

soybean (Glycine max) [6] = test: as above; settings: 10 days, 0 = no effect, 100 = complete control
How it was run: as §1

[7] = test system: ragweed (common ragweed, Ambrosia artemisiifolia); test: as above; settings: 10 days, 0 = no effect, 100 = complete control
How it was run: as §1

[8] = test system: wheat (Triticum aestivum); test: as above; settings: 10 days, 0 = no effect, 100 = complete control
How it was run: as §1

corn (Zea mays) [9] = test: as above; settings: 10 days, 0 = no effect, 100 = complete control
How it was run: as §1

[10] = test system: blackgrass (Alopecurus myosuroides); test: as above; settings: 10 days, 0 = no effect, 100 = complete control
How it was run: as §1

[11] = test system: ryegrass, Italian (italian ryegrass, Lolium multiflorum); test: as above; settings: 10 days, 0 = no effect, 100 = complete control
How it was run: as §1

[12] = test system: barnyardgrass (Echinochloa crusgalli); test: Test B flooded paddy test, visual plant response rating 0-100; settings: 250 g ai/ha, Flood, applied to paddy water, evaluated after 13 days
How it was run: (§2)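 Visual evaluation after 13 days. Water-applied treatment, 3 cm flood depth held constant, plants at 2-leaf stage at treatment.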

[13] = test system: sedge, umbrella (small-flower umbrella sedge, Cyperus difformis); test: as above; settings: 250 g ai/ha, Flood, applied to paddy water, evaluated after 13 days
How it was run: as §2

rice (Oryza sativa) = test: as above; settings: 250 g ai/ha, Flood, applied to paddy water, evaluated after 13 days
How it was run: as §2

[14] = test system: ducksalad (Heteranthera limosa); test: as above; settings: 250 g ai/ha, Flood, applied to paddy water, evaluated after 13 days
How it was run: as §2

[15] = test system: barnyardgrass (Echinochloa crus-galli); test: Test A postemergence application, visual injury rating 0-100; settings: Postemergence
How it was run: as §1

[16] = test system: green foxtail (Setaria viridis); test: as above; settings: Postemergence
How it was run: as §1

[17] = test system: oat, wild (wild oat, Avena fatua); test: as above; settings: Postemergence
How it was run: as §1

[18] = test system: palmer (palmer amaranth, palmer pigweed, Amaranthus palmeri); test: as above; settings: Postemergence
How it was run: as §1

kochia (Bassia scoparia) [19] = test: as above; settings: Postemergence
How it was run: as §1

[20] = test system: horseweed (Erigeron canadensis); test: as above; settings: Postemergence
How it was run: as §1

soybean (Glycine max) [21] = test: as above; settings: Postemergence
How it was run: as §1

[22] = test system: ragweed (common ragweed, Ambrosia artemisiifolia); test: as above; settings: Postemergence
How it was run: as §1

[23] = test system: wheat (Triticum aestivum); test: as above; settings: Postemergence
How it was run: as §1

corn (Zea mays) [24] = test: as above; settings: Postemergence
How it was run: as §1

[25] = test system: blackgrass (Alopecurus myosuroides); test: as above; settings: Postemergence
How it was run: as §1

[26] = test system: galium (catchweed bedstraw, Galium aparine); test: as above; settings: Postemergence
How it was run: as §1

[27] = test system: ryegrass, Italian (italian ryegrass, Lolium multiflorum); test: as above; settings: Postemergence
How it was run: as §1

[28] = 31 g ai/ha, greenhouse 10 days, 0 no effect, 100 complete control
[29] = 125 g ai/ha, 10 days, 0 is no effect, 100 is complete control

CC(C)COC(=O)C1C=CC(NC(=O)C2(C)CN(c3cc(Cl)cc(Cl)c3)C(=O)O2)C1 (stereo not shown) [Compound 66]
Barnyardgrass plant response rating (0-100) ([1]; 31 g ai/ha): 50 | Barnyardgrass plant response rating (0 to 100 scale) ([1]; 125 g ai/ha): 90 | Foxtail, Green plant response rating (0-100) ([2]; 31 g ai/ha): 20 | Foxtail, Green plant response rating (0 to 100 scale) ([2]; 125 g ai/ha): 100 | Oat, Wild plant response rating (0-100) ([3]; 31 g ai/ha): 0 | Oat, Wild plant response rating (0 to 100 scale) ([3]; 125 g ai/ha): 90 | Amaranth, Palmer plant response rating (0-100) ([4]; 31 g ai/ha): 90 | Amaranth, Palmer plant response rating (0 to 100 scale) ([4]; 125 g ai/ha): 100 | Kochia plant response rating (0-100) (kochia (Bassia scoparia) [5]; 31 g ai/ha): 0 | Kochia plant response rating (0 to 100 scale) (kochia (Bassia scoparia) [5]; 125 g ai/ha): 30 | Soybean plant response rating (0-100) (soybean (Glycine max) [6]; 31 g ai/ha): 0 | Soybean plant response rating (0 to 100 scale) (soybean (Glycine max) [6]; 125 g ai/ha): 0 | Ragweed plant response rating (0-100) ([7]; 31 g ai/ha): 0 | Ragweed plant response rating (0 to 100 scale) ([7]; 125 g ai/ha): 70 | Wheat plant response rating (0-100) ([8]; 31 g ai/ha): 10 | Wheat plant response rating (0 to 100 scale) ([8]; 125 g ai/ha): 70 | Corn plant response rating (0-100) (corn (Zea mays) [9]; 31 g ai/ha): 0 | Corn plant response rating (0 to 100 scale) (corn (Zea mays) [9]; 125 g ai/ha): 60 | Blackgrass plant response rating (0-100) ([10]; 31 g ai/ha): 30 | Blackgrass plant response rating (0 to 100 scale) ([10]; 125 g ai/ha): 80 | Ryegrass, Italian plant response rating (0-100) ([11]; 31 g ai/ha): 50 | Ryegrass, Italian plant response rating (0 to 100 scale) ([11]; 125 g ai/ha): 90 | Plant response rating, Barnyardgrass (0 to 100 scale, 0 is no effect and 100 is complete control) [12]: 75 | Plant response rating, Sedge, Umbrella (0 to 100 scale, 0 is no effect and 100 is complete control) [13]: 100 | Plant response rating, Rice (0 to 100 scale, 0 is no effect and 100 is complete control) (rice (Oryza sativa)): 15 | Plant response rating, Ducksalad (0 to 100 scale, 0 is no effect and 100 is complete control) [14]: 95 | Barnyardgrass plant response rating (0 to 100 scale) [15, 28]: 100 | Barnyardgrass plant response rating (0 to 100 scale) [15, 29]: 100 | Foxtail, Green plant response rating (0 to 100 scale) [16, 28]: 70 | Foxtail, Green plant response rating (0 to 100 scale) [16, 29]: 90 | Oat, Wild plant response rating (0 to 100 scale) [17, 28]: 90 | Oat, Wild plant response rating (0 to 100 scale) [17, 29]: 90 | Amaranth, Palmer / Pigweed, Palmer plant response rating (0 to 100 scale) [18, 28]: 90 | Amaranth, Palmer / Pigweed, Palmer plant response rating (0 to 100 scale) [18, 29]: 90 | Kochia plant response rating (0 to 100 scale) (kochia (Bassia scoparia) [19]; [28]): 70 | Kochia plant response rating (0 to 100 scale) (kochia (Bassia scoparia) [19]; [29]): 80 | Horseweed plant response rating (0 to 100 scale) [20, 28]: 40 | Horseweed plant response rating (0 to 100 scale) [20, 29]: 70 | Soybean plant response rating (0 to 100 scale) (soybean (Glycine max) [21]; [28]): 80 | Soybean plant response rating (0 to 100 scale) (soybean (Glycine max) [21]; [29]): 80 | Ragweed plant response rating (0 to 100 scale) [22, 28]: 70 | Ragweed plant response rating (0 to 100 scale) [22, 29]: 80 | Wheat plant response rating (0 to 100 scale) [23, 28]: 90 | Wheat plant response rating (0 to 100 scale) [23, 29]: 90 | Corn plant response rating (0 to 100 scale) (corn (Zea mays) [24]; [28]): 90 | Corn plant response rating (0 to 100 scale) (corn (Zea mays) [24]; [29]): 100 | Blackgrass plant response rating (0 to 100 scale) [25, 28]: 90 | Blackgrass plant response rating (0 to 100 scale) [25, 29]: 90 | Galium plant response rating (0 to 100 scale) [26, 28]: 70 | Galium plant response rating (0 to 100 scale) [26, 29]: 80 | Ryegrass, Italian plant response rating (0 to 100 scale) [27, 28]: 70 | Ryegrass, Italian plant response rating (0 to 100 scale) [27, 29]: 100
